These results are taken from US9346813B2, “Substituted pyrrolo[2,3-d]pyrimindines as CDK9 kinase inhibitors” (AbbVie Inc., priority 2014, dated 2016).

Usually IC50 stands for the midpoint of a concentration-inhibition curve. A low value points to higher potency. As a reminder, the EC50 is the concentration needed to bring the measured effect to its halfway point. A high value points to a less potent agent.

Some results are limits rather than exact numbers.

In assay [1] the target is T1, CDK9/Cyclin T1 (Homo sapiens, UniProt P50750).
T1 construct: purchased Carna Biosciences 04-110
T1 sequence (P50750 whole entry): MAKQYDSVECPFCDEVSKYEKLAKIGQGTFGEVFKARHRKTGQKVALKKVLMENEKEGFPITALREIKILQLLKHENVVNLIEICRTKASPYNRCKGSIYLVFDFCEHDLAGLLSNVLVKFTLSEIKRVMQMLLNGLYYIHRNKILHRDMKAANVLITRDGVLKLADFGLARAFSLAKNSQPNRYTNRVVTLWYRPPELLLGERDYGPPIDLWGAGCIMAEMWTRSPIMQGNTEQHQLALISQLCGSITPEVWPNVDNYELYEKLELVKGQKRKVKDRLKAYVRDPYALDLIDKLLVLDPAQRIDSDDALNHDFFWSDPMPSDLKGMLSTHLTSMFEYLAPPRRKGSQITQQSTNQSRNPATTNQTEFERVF
T1 sequence (O60563 whole entry partner): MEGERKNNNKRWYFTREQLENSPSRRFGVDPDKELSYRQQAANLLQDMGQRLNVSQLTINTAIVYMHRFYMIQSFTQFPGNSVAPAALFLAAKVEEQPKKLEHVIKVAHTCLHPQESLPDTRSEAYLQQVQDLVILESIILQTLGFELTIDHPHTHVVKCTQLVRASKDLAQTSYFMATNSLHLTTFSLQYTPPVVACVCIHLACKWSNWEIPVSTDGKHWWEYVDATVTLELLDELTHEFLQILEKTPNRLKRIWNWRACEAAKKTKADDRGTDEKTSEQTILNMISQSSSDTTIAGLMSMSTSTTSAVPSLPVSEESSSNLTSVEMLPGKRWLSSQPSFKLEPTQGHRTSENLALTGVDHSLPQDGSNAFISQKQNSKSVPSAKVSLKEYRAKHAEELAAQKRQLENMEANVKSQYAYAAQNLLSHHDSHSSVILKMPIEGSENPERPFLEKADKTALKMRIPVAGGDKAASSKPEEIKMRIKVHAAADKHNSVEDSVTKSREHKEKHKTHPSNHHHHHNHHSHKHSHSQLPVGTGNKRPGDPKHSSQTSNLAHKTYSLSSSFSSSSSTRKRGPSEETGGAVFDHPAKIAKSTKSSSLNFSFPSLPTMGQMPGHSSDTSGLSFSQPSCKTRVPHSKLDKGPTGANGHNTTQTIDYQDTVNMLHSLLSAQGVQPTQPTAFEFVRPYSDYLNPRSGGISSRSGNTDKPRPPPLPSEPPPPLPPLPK
Description: CDK9 enzyme protocol (LANCE ULight TR-FRET kinase assay). The note with it: 4 nM CDK9/Cyclin T1, 1000 μM ATP, 100 nM U-light MBP peptide, 30 minutes. The format is biochemical. The procedure:
CDK9 enzyme activities were measured using LANCE ULight TR-FRET kinase assay reagents (PerkinElmer, Waltham, Mass.). Compounds were directly added in 100% DMSO to white low volume assay plates (Perkin Elmer Proxiplate 6008289) using a Labcyte Echo acoustic dispenser. Assay reagents in serine/threonine kinase assay buffer containing 20 mM HEPES, 10 mM MgCl2, 100 mM Na3VO4, and 0.0075% Triton X-100. were added for final reaction mixture concentrations of 1000 μM ATP, 100 nM U-light MBP peptide (Perkin Elmer TRF0109M) and reaction initiated with 4 nM CDK9/Cyclin T1 (Carna Biosciences 04-110). The kinase reaction was carried out for 30 minutes before addition of stopping buffer to a final of 20 mM EDTA and 0.5 nM of LANCE Ultra Europium anti-phospho-MBP antibody (PerkinElmer TRF0201M) in LANCE detection buffer (PerkinElmer CR97-100). The reaction was equilibrated for 1 hour and the signal read in the Perkin Elmer Envision in TR-FRET mode (excitation at 320 nm and emission at 615/665 nm).
(Time-resolved FRET reads energy transfer from a long-lived donor to a nearby acceptor.)

Assay [2] deals with H929 cells. Description: Cell viability assay in H929 cells (Cell TiterGlo). The format is cell-based. The note with it: Homo sapiens, NCI-H929, 24 hours at 37° C. How it is done:
Cell viability assays were performed using A431 or H929 cells. A431 cells were seeded in 96-well plates at 10,000 cells/well, and after overnight incubation, treated with compounds at 2-times the final concentration to result in a dose response of 3-fold dilutions from 10 μM to 0.0005 μM (50 μL/well, 0.1% final DMSO concentration). H929 cells were seeded in 96-well plates at 10,000 cells/well and treated immediately with compounds as described above. After 24 hours at 37° C., cell viability was measured using Cell TiterGlo reagent (Promega) with a luminescence reader. Alternately, cell viability assays were performed in 384-well format. A431 cells were seeded in 384-well plates at 2500 cells/well and, after overnight incubation, treated with compounds in a dose response of 3-fold dilutions from 10 μM to 0.0005 μM (25 nL/well, 0.1% final DMSO concentration). For the H929 viability assay, 25 nL/well of the compounds was dispensed into 384-well plates in a dose response as described above and cells were immediately seeded in 384-well plates at 2500 cells/well. After 24 hours at 37° C., cell viability was measured using Cell TiterGlo reagent (Promega) with a luminescence reader.
In general terms: ATP-based viability assays read luminescence as a measure of living cells.

Compound `COc1ccncc1-c1ncnc2[nH]c(C3=CCN(S(C)(=O)=O)CC3)cc12` [Example 59, 4-(4-methoxypyridin-3-yl)-6-[1-(methylsulfonyl)-1,2,3,6-tetrahydropyridin-4-yl]-7H-pyrrolo[2,3-d]pyrimidine] came in with an IC50 in assay [1] of 910 nM.
Same read-out and setting: for `CS(=O)(=O)N1CC=C(c2cc3c(N4CCCC4)ncnc3[nH]2)CC1` [Example 62, 6-[1-(methylsulfonyl)-1,2,3,6-tetrahydropyridin-4-yl]-4-(pyrrolidin-1-yl)-7H-pyrrolo[2,3-d]pyrimidine] the value was 5000 nM.
Consider `COc1ccc(F)cc1-c1ncnc2[nH]c(C3=CCN(Cc4ccc(NC(=O)OC(C)(C)C)cc4)CC3)cc12` [Example 69, tert-butyl [4-({4-[4-(5-fluoro-2-methoxyphenyl)-7H-pyrrolo[2,3-d]pyrimidin-6-yl]-3,6-dihydropyridin-1(2H)-yl}methyl)phenyl]carbamate], for which the IC50 in assay [1] is 450 nM.
Still for that read-out and setting: the figure for `CCCOc1ccc(F)cc1-c1ncnc2[nH]c(C3=CCN(S(C)(=O)=O)CC3)cc12` [Example 49, 4-(5-fluoro-2-propoxyphenyl)-6-[1-(methylsulfonyl)-1,2,3,6-tetrahydropyridin-4-yl]-7H-pyrrolo[2,3-d]pyrimidine] is 1300 nM.
Consider `CS(=O)(=O)N1CC=C(c2cc3c(-c4cc(NCc5ccccn5)ccc4F)ncnc3[nH]2)CC1` [Example 33, 4-fluoro-3-{6-[1-(methylsulfonyl)-1,2,3,6-tetrahydropyridin-4-yl]-7H-pyrrolo[2,3-d]pyrimidin-4-yl}-N-(pyridin-2-ylmethyl)aniline], for which the IC50 in assay [1] was 300 nM.
In turn, `CS(=O)(=O)N1CC=C(c2cc3c(-c4ccc(F)cc4F)ncnc3[nH]2)CC1` [Example 46, 4-(2,4-difluorophenyl)-6-[1-(methylsulfonyl)-1,2,3,6-tetrahydropyridin-4-yl]-7H-pyrrolo[2,3-d]pyrimidine] had an IC50 in assay [1] of 830 nM.
Turning to `CS(=O)(=O)N1CC=C(c2cc3c(-c4cc(C(F)(F)F)ccc4F)ncnc3[nH]2)CC1` [Example 51, 4-[2-fluoro-5-(trifluoromethyl)phenyl]-6-[1-(methylsulfonyl)-1,2,3,6-tetrahydropyridin-4-yl]-7H-pyrrolo[2,3-d]pyrimidine], the IC50 in assay [1] was above 12500 nM.
Same read-out and setting: for `Cc1ccc(OC(C)C)c(-c2ncnc3[nH]c(C4=CCN(S(C)(=O)=O)CC4)cc23)c1` [Example 43, 4-[5-methyl-2-(propan-2-yloxy)phenyl]-6-[1-(methylsulfonyl)-1,2,3,6-tetrahydropyridin-4-yl]-7H-pyrrolo[2,3-d]pyrimidine] the value was above 12500 nM; for `Cn1cc(-c2ncnc3[nH]c(C4=CCN(S(C)(=O)=O)CC4)cc23)cn1` [Example 57, 4-(1-methyl-1H-pyrazol-4-yl)-6-[1-(methylsulfonyl)-1,2,3,6-tetrahydropyridin-4-yl]-7H-pyrrolo[2,3-d]pyrimidine], 2400 nM.
`COc1ccc(F)cc1-c1ncnc2[nH]c(C3=CCN(CC(O)CO)CC3)cc12` (stereo not drawn) [Example 20, 3-{4-[4-(5-fluoro-2-methoxyphenyl)-7H-pyrrolo[2,3-d]pyrimidin-6-yl]-3,6-dihydropyridin-1(2H)-yl}propane-1,2-diol] had an EC50 in assay [2] of 380 nM.
In assay [1], `CCOc1ccc(F)cc1-c1ncnc2[nH]c(C3=CCN(C(=O)OC(C)(C)C)CC3)cc12` [Example 66, tert-butyl 4-[4-(2-ethoxy-5-fluorophenyl)-7H-pyrrolo[2,3-d]pyrimidin-6-yl]-3,6-dihydropyridine-1(2H)-carboxylate] displayed an IC50 of 1500 nM.
`CS(=O)(=O)Nc1cccc(-c2ncnc3[nH]c(C4=CCN(S(C)(=O)=O)CC4)cc23)c1` [Example 48, N-(3-{6-[1-(methylsulfonyl)-1,2,3,6-tetrahydropyridin-4-yl]-7H-pyrrolo[2,3-d]pyrimidin-4-yl}phenyl)methanesulfonamide] returned an IC50 in assay [1] of 290 nM.
Compound `Cc1cc(Cl)cc(-c2ncnc3[nH]c(C4=CCN(S(C)(=O)=O)CC4)cc23)c1F` [Example 41, 4-(5-chloro-2-fluoro-3-methylphenyl)-6-[1-(methylsulfonyl)-1,2,3,6-tetrahydropyridin-4-yl]-7H-pyrrolo[2,3-d]pyrimidine] came in with an IC50 in assay [1] of 11700 nM.
`COc1ccc(C)cc1-c1ncnc2[nH]c(C3=CCN(S(C)(=O)=O)CC3)cc12` [Example 44, 4-(2-methoxy-5-methylphenyl)-6-[1-(methylsulfonyl)-1,2,3,6-tetrahydropyridin-4-yl]-7H-pyrrolo[2,3-d]pyrimidine] showed an IC50 in assay [1] of 610 nM.
`CS(=O)(=O)N1CC=C(c2cc3c(N4CCC(F)(F)CC4)ncnc3[nH]2)CC1` [Example 63, 4-(4,4-difluoropiperidin-1-yl)-6-[1-(methylsulfonyl)-1,2,3,6-tetrahydropyridin-4-yl]-7H-pyrrolo[2,3-d]pyrimidine]: inhibition in assay [1] was half-maximal at 1300 nM (IC50).
Take `CS(=O)(=O)N1CC=C(c2cc3c(N4CC(F)(F)C4)ncnc3[nH]2)CC1` [Example 64, 4-(3,3-difluoroazetidin-1-yl)-6-[1-(methylsulfonyl)-1,2,3,6-tetrahydropyridin-4-yl]-7H-pyrrolo[2,3-d]pyrimidine]: in assay [1], the IC50 was found to be 2000 nM.
Regarding `CS(=O)(=O)N1CC=C(c2cc3c(-c4ccccc4OC(F)(F)F)ncnc3[nH]2)CC1` [Example 58, 6-[1-(methylsulfonyl)-1,2,3,6-tetrahydropyridin-4-yl]-4-[2-(trifluoromethoxy)phenyl]-7H-pyrrolo[2,3-d]pyrimidine], in assay [1], the IC50 was above 12500 nM.
Still for that read-out and setting: for `CCCCOc1ccc(F)c(-c2ncnc3[nH]c(C4=CCN(S(C)(=O)=O)CC4)cc23)c1` [Example 54, 4-(5-butoxy-2-fluorophenyl)-6-[1-(methylsulfonyl)-1,2,3,6-tetrahydropyridin-4-yl]-7H-pyrrolo[2,3-d]pyrimidine] the value was 4100 nM; for `COc1ccc(F)cc1-c1ncnc2[nH]c(C3CCN(C)CC3)cc12` [Example 2, 4-(5-fluoro-2-methoxyphenyl)-6-(1-methylpiperidin-4-yl)-7H-pyrrolo[2,3-d]pyrimidine], 110 nM.
The compound `CC(C)Oc1ccc(F)c(-c2ncnc3[nH]c(C4=CCN(S(C)(=O)=O)CC4)cc23)c1` [Example 52, 4-[2-fluoro-5-(propan-2-yloxy)phenyl]-6-[1-(methylsulfonyl)-1,2,3,6-tetrahydropyridin-4-yl]-7H-pyrrolo[2,3-d]pyrimidine] registered an IC50 in assay [1] of 10100 nM.
On the same count and under the same terms, the figure for `CS(=O)(=O)N1CC=C(c2cc3c(N4CCOCC4)ncnc3[nH]2)CC1` [Example 60, 6-[1-(methylsulfonyl)-1,2,3,6-tetrahydropyridin-4-yl]-4-(morpholin-4-yl)-7H-pyrrolo[2,3-d]pyrimidine] is 4000 nM.
Turning to `CCCOc1ccc(C)cc1-c1ncnc2[nH]c(C3=CCN(S(C)(=O)=O)CC3)cc12` [Example 53, 4-(5-methyl-2-propoxyphenyl)-6-[1-(methylsulfonyl)-1,2,3,6-tetrahydropyridin-4-yl]-7H-pyrrolo[2,3-d]pyrimidine], it took 2800 nM to reach half-maximal inhibition in assay [1] (IC50).
`CCOc1ccc(F)cc1-c1ncnc2[nH]c(C3=CCNCC3)cc12` [Example 67, 4-(2-ethoxy-5-fluorophenyl)-6-(1,2,3,6-tetrahydropyridin-4-yl)-7H-pyrrolo[2,3-d]pyrimidine] registered an IC50 in assay [1] of 300 nM.
In assay [1], `CS(=O)(=O)N1CC=C(c2cc3c(-c4cccc(OC(F)(F)F)c4)ncnc3[nH]2)CC1` [Example 56, 6-[1-(methylsulfonyl)-1,2,3,6-tetrahydropyridin-4-yl]-4-[3-(trifluoromethoxy)phenyl]-7H-pyrrolo[2,3-d]pyrimidine] came in with an IC50 of 1600 nM.
`CS(=O)(=O)N1CC=C(c2cc3c(-c4ccccc4C(F)(F)F)ncnc3[nH]2)CC1` [Example 47, 6-[1-(methylsulfonyl)-1,2,3,6-tetrahydropyridin-4-yl]-4-[2-(trifluoromethyl)phenyl]-7H-pyrrolo[2,3-d]pyrimidine] gave an IC50 in assay [1] of 1400 nM.
In the case of `CCCCOc1ccc(F)cc1-c1ncnc2[nH]c(C3=CCN(S(C)(=O)=O)CC3)cc12` [Example 42, 4-(2-butoxy-5-fluorophenyl)-6-[1-(methylsulfonyl)-1,2,3,6-tetrahydropyridin-4-yl]-7H-pyrrolo[2,3-d]pyrimidine], it took 1200 nM to reach half-maximal inhibition in assay [1] (IC50).
`Cc1ccc(F)c(-c2ncnc3[nH]c(C4=CCN(S(C)(=O)=O)CC4)cc23)c1` [Example 50, 4-(2-fluoro-5-methylphenyl)-6-[1-(methylsulfonyl)-1,2,3,6-tetrahydropyridin-4-yl]-7H-pyrrolo[2,3-d]pyrimidine] gave a concentration for half-maximal inhibition (IC50) in assay [1] of 1000 nM.
